Converted amounts (≈) assume the structure as drawn. Read-outs that look alike come from different tables or passages of the source.
How the values were obtained:
Type in all cases: cell-based
[1] = system: Streptococcus pyogenes 1079; experiment: MIC, microtiter broth dilution (NCCLS M100-S14), S. pyogenes 1079 (ermB)
Method in brief: (§1)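 Panel strains, including macrolide-resistant isolates and their susceptible parents where available, are exposed to serial compound dilutions in microtiter trays. Growth inhibition is scored as MIC under NCCLS M100-S14 standards.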

[2] = system: Streptococcus pneumoniae 1016; experiment: MIC, microtiter broth dilution (NCCLS M100-S14), S. pneumoniae 1016 (susceptible)
Method in brief: as §1

[3] = system: Streptococcus pneumoniae 1095; conditions: microtiter broth dilution
Method in brief: as §1

[4] = system: Streptococcus pneumoniae 1175; conditions: microtiter broth dilution
Method in brief: as §1

[5] = system: Haemophilus influenzae 1218; experiment: MIC, microtiter broth dilution (NCCLS M100-S14), H. influenzae 1218 (susceptible)
Method in brief: as §1

[6] = S. pneumoniae 1016 (susceptible)
[7] = H. influenzae 1218 (susceptible)

Compound | MIC S. pyogenes 1079 ([1]; S. pyogenes 1079 (ermB)) [µg/mL] | MIC S. pneumo. 1016 [2, 6] [µg/mL] | MIC S. pneumo. 1095 ([3]; S. pneumoniae 1095 (ermB)) [µg/mL] | MIC S. pneumo. 1175 ([4]; S. pneumoniae 1175 (mefA)) [µg/mL] | MIC H. influenzae 1218 [5, 7] [µg/mL] | MIC S. pyogenes 1079 ([1]; Streptococcus pyogenes 1079) [µg/mL] | MIC S. pneumo. 1016 ([2]; Streptococcus pneumoniae 1016) [µg/mL] | MIC S. pneumo. 1095 ([3]; Streptococcus pneumoniae 1095) [µg/mL] | MIC S. pneumo. 1175 ([4]; Streptococcus pneumoniae 1175) [µg/mL] | MIC H. influenzae 1218 ([5]; Haemophilus influenzae 1218) [µg/mL]
CCC1OC(=O)C(C)C(=O)C(C)C(OC2OC(C)CC(N(C)C)C2O)C(C)(OC)CC(C)C(=O)C(C)C2N(CC3CCCN3Cc3ccnc4ccccc34)C(=O)OC12C (stereo not shown) [10.04] | 16 (≈ 19.1 µM) | <0.06 | <0.06 | <0.06 | 0.5 (≈ 0.597 µM) | – | – | – | – | –
CCC1OC(=O)C(C)C(=O)C(C)C(OC2OC(C)CC(N(C)C)C2O)C(C)(OC)CC(C)C(=O)C(C)C2N(CC3CCCN3Cc3c[nH]nn3)C(=O)OC12C (stereo not shown) [10.02] | >64.00 | <0.06 | 0.25 (≈ 0.322 µM) | 2 (≈ 2.57 µM) | 1 (≈ 1.29 µM) | – | – | – | – | –
CCC1OC(=O)C(C)C(=O)C(C)C(OC2OC(C)CC(N(C)C)C2O)C(C)(OC)CC(C)C(=O)C(C)C2N(C3CN(S(=O)(=O)c4ccc(OC)cc4OC)C3)C(=O)OC12C (stereo not shown) [Example 3.31, 3-descladinosyl-11,12-dideoxy-6-O-methyl-3-oxo-12,11-(1-(oxycarbonyl-(2,4-dimethoxybenzenesulfonyl)-azetidin-3-yl)-imino)-erythromycin A] | – | – | – | – | – | 4 (≈ 4.61 µM) | <0.06 | 2 (≈ 2.3 µM) | 0.12 (≈ 0.138 µM) | 0.5 (≈ 0.576 µM)
CCC1OC(=O)C(C)C(=O)C(C)C(OC2OC(C)CC(N(C)C)C2O)C(C)(OC)CC(C)C(=O)C(C)C2N(C3CN(Cc4ccc(=O)n5ccccc45)C3)C(=O)OC12C (stereo not shown) [Example 1.82, 3-descladinosyl-11,12-dideoxy-6-O-methyl-3-oxo-12,11-(oxycarbonyl-(1-(4H-quinolizin-4-one-1-methyl)-azetidin-3-yl)-imino)-erythromycin A] | – | – | – | – | – | 4 (≈ 4.85 µM) | <0.063 | <0.063 | <0.063 | 0.5 (≈ 0.606 µM)
CC[C@H]1OC(=O)[C@H](C)C(=O)[C@H](C)[C@@H](O[C@@H]2O[C@H](C)C[C@H](N(C)C)[C@H]2O)[C@](C)(OC)C[C@@H](C)C(=O)[C@H](C)[C@H]2N(CC3(O)CN(C(=O)c4cnc5ncccc5c4)C3)C(=O)O[C@]12C [7.25] | >64.00 | <0.06 | <0.06 | 2 (≈ 2.34 µM) | 1 (≈ 1.17 µM) | – | – | – | – | –
CCC1OC(=O)C(C)C(=O)C(C)C(OC2OC(C)CC(N(C)C)C2O)C(C)(OC)CC(C)C(=O)C(C)C2N(C3CN(S(=O)(=O)c4ccc(OC)c5ncccc45)C3)C(=O)OC12C (stereo not shown) [Example 3.101, 3-descladinosyl-11,12-dideoxy-6-O-methyl-3-oxo-12,11-(oxycarbonyl-(1-(8-methoxyquinoline-5-sulfonyl)-azetidin-3-yl)-imino)-erythromycin A] | – | – | – | – | – | <0.063 | <0.063 | <0.063 | <0.063 | 0.125 (≈ 0.141 µM)
CC[C@H]1OC(=O)[C@H](C)C(=O)[C@H](C)[C@@H](O[C@@H]2O[C@H](C)C[C@H](N(C)C)[C@H]2O)[C@](C)(OC)C[C@@H](C)C(=O)[C@H](C)[C@H]2N(CC3(O)CN(Cc4ccc(-c5ncccn5)cc4)C3)C(=O)O[C@]12C [7.10] | >64.00 | <0.06 | 64 (≈ 73.9 µM) | 1 (≈ 1.15 µM) | 2 (≈ 2.31 µM) | – | – | – | – | –
CCC1OC(=O)C(C)C(=O)C(C)C(OC2OC(C)CC(N(C)C)C2O)C(C)(OC)CC(C)C(=O)C(C)C2N(C3CN(S(=O)(=O)c4ccc5cnsc5c4)C3)C(=O)OC12C (stereo not shown) [Example 3.104, 3-descladinosyl-11,12-dideoxy-6-O-methyl-3-oxo-12,11-(oxycarbonyl-(1-(benzo[d]isothiazole-6-sulfonyl)-azetidin-3-yl)-imino)-erythromycin A] | – | – | – | – | – | 1 (≈ 1.16 µM) | <0.063 | <0.063 | <0.063 | <0.063

Reference: patent US7462600B2, “Macrolides” (Pfizer Inc, priority 2004, dated 2008)
